# Test results reported in ChEMBL document CHEMBL3994565 (Medchemcomm, 2016).
# Activity calls are given as the source filed them. The rule behind the calls is not given here.
# Tests used:
# [1] = Cytotoxicity against MDCK cells assessed as cell viability at 10 uM after 40 hrs by CellTiter-Glo assay; assay type: cell-based, Canis lupus familiaris; settings: dog, read-out: Activity
# [2] = Cytotoxicity against MDCK cells assessed as decrease in cell viability after 40 hrs by CellTiter-Glo assay; assay type: cell-based, Canis lupus familiaris; settings: dog
# [3] = Antiviral activity against Influenza A virus (A/WSN/33(H1N1)) infected in MDCK cells assessed as inhibition of virus-induced cytopathic effect at 10 uM incubated for 40 hrs by CellTiter-Glo assay; assay type: functional, Influenza A virus (A/WSN/1933(H1N1))
# [4] = Selectivity index, ratio of CC50 against uninfected MDCK cells to IC50 against Influenza A virus (A/WSN/33(H1N1)) infected MDCK cells; assay type: toxicity, cell-based; settings: dog; read-out: Ratio CC50/IC50
# [5] = Antiviral activity against Influenza A virus (A/WSN/33(H1N1)) infected in MDCK cells assessed as inhibition of virus-induced cytopathic effect incubated for 40 hrs by CellTiter-Glo assay; assay type: functional, cell-based, Influenza A virus (A/WSN/1933(H1N1))
# [6] = Antiviral activity against Influenza A virus (A/WSN/33(H1N1)) infected in MDCK cells assessed as inhibition of virus-induced cytopathic effect at 100 uM incubated for 40 hrs by CellTiter-Glo assay; assay type: functional, Influenza A virus (A/WSN/1933(H1N1))
# [7] = Cytotoxicity against MDCK cells assessed as cell viability at 100 uM after 40 hrs by CellTiter-Glo assay relative to control; assay type: cell-based, Canis lupus familiaris; settings: dog, read-out: Activity
# [8] = Cytotoxicity against MDCK cells assessed as cell viability at 100 uM after 40 hrs in presence of betulinic acid by CellTiter-Glo assay; assay type: cell-based, Canis lupus familiaris; settings: dog, read-out: Activity
# [9] = Binding affinity to recombinant Influenza virus hemagglutinin by surface plasmon resonance analysis; parameters: species or system unidentified influenza virus; settings: read-out: Kd(app)
# [10] = tested on: Influenza A virus (A/WSN/1933(H1N1)); test: Antiviral activity against Influenza A virus (A/WSN/33(H1N1)) infected in MDCK cells assessed as inhibition of viral production after 2 hrs post-infection by plaque formation assay; assay type: functional, cell-based
# [11] = Antiviral activity against Influenza A virus (A/WSN/33(H1N1)) infected in MDCK cells assessed as inhibition of viral production up to 2 hrs post-infection by plaque formation assay; assay type: functional, Influenza A virus (A/WSN/1933(H1N1))
# [12] = tested on: Influenza A virus (A/WSN/1933(H1N1)); test: Inhibition of Influenza A virus (A/WSN/33(H1N1)) neuraminidase activity using 4-MUNANA as substrate incubated for 30 mins by fluorescence spectrophotometry relative to control
# [13] = molecular target: Hemagglutinin (Influenza A virus) (UniProt B4URE7); test: Inhibition of Influenza A virus (A/WSN/33(H1N1)) hemagglutinin-mediated aggregation of chicken erythrocytes after 30 mins; settings: Influenza A virus (A/WSN/1933(H1N1))
# Hemagglutinin (Influenza A virus), sequence (B4URE7 as listed by the source): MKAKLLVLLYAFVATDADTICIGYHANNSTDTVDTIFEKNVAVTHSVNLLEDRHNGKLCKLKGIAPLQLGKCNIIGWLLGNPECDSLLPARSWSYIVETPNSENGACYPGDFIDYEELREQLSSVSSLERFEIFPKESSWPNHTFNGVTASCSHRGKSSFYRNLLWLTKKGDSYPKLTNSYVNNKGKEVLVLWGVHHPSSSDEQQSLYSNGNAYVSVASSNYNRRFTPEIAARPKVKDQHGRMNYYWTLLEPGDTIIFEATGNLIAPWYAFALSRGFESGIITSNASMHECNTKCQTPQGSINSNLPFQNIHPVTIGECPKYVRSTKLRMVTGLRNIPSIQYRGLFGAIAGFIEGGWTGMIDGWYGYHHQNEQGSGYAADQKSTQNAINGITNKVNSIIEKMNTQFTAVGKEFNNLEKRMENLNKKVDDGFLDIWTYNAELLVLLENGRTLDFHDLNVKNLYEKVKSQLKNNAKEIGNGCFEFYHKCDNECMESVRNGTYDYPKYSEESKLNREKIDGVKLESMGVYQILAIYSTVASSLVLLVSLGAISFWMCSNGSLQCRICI
# [14] = Antiviral activity against Influenza A virus (A/WSN/33(H1N1)) infected in MDCK cells assessed as inhibition of virus-induced cytopathic effect at 50 uM incubated for 40 hrs by CellTiter-Glo assay; assay type: functional, Influenza A virus (A/WSN/1933(H1N1))
# [15] = Cytotoxicity against MDCK cells assessed as cell viability at 50 uM after 40 hrs by CellTiter-Glo assay; assay type: cell-based, Canis lupus familiaris; settings: dog, read-out: Activity
# [16] = Cytotoxicity against MDCK cells assessed as cell viability at 100 uM after 40 hrs in presence of sialic acid by CellTiter-Glo assay; assay type: cell-based, Canis lupus familiaris; settings: dog, read-out: Activity
smiles,measurement,setting,value
COc1cc(/C=C/C(=O)CC(=O)/C=C/c2ccc(O)c(OC)c2)ccc1O [CURCUMIN],"viability at 40 h, 10 µM",[1],98.7%
same,CC50 at 40 h,[2],48.3 µM
same,inhibition at 10 µM,[3],69.3%
same,selectivity ratio,[4],7.2
same,IC50,[5],6.7 µM
C=C(C)[C@@H]1CC[C@]2(C(=O)NCc3cn([C@]4(C(=O)OC)C[C@H](OC(C)=O)[C@@H](NC(C)=O)[C@H]([C@H](OC(C)=O)[C@@H](COC(C)=O)OC(C)=O)O4)nn3)CC[C@]3(C)[C@H](CC[C@@H]4[C@@]5(C)CC[C@H](O)C(C)(C)[C@@H]5CC[C@]43C)[C@@H]12,inhibition at 100 µM,[6],16%
same,"viability at 40 h, 100 µM",[7],100%
COC(=O)[C@@]1(OCCn2cc(CNC(=O)[C@]34CCC(C)(C)C[C@@H]3C3=CC[C@@H]5[C@@]6(C)CC[C@H](O)C(C)(C)[C@@H]6CC[C@@]5(C)[C@]3(C)CC4)nn2)C[C@H](OC(C)=O)[C@@H](NC(C)=O)[C@H]([C@H](OC(C)=O)[C@@H](COC(C)=O)OC(C)=O)O1,inhibition at 100 µM,[6],57.8%
same,CC50 at 40 h,[2],> 500 µM
same,selectivity ratio,[4],> 5.2
same,"viability at 40 h, 100 µM",[7],97.1%
same,IC50,[5],95.2 µM
COC(=O)[C@@]1(OCCOC(=O)[C@]23CCC(C)(C)C[C@@H]2C2=CC[C@@H]4[C@@]5(C)CC[C@H](O)C(C)(C)[C@@H]5CC[C@@]4(C)[C@]2(C)CC3)C[C@H](OC(C)=O)[C@@H](NC(C)=O)[C@H]([C@H](OC(C)=O)[C@@H](COC(C)=O)OC(C)=O)O1,inhibition at 100 µM,[6],18.7%
same,"viability at 40 h, 100 µM",[7],90.1%
COC(=O)[C@@]1(OCCn2cc(CNC(=O)[C@]34CCC(C)(C)C[C@@H]3C3=CC[C@@H]5[C@@]6(C)CC[C@H](O)C(C)(C)[C@@H]6CC[C@@]5(C)[C@]3(C)C[C@H]4O)nn2)C[C@H](OC(C)=O)[C@@H](NC(C)=O)[C@H]([C@H](OC(C)=O)[C@@H](COC(C)=O)OC(C)=O)O1,inhibition at 100 µM,[6],15.3%
same,"viability at 40 h, 100 µM",[7],105%
CC(=O)N[C@H]1[C@H]([C@H](O)[C@H](O)CO)O[C@@](O)(C(=O)O)C[C@@H]1O,inhibition at 100 µM,[6],2%
same,"viability at 40 h, 100 µM",[8],20.3%
same,"viability at 40 h, 100 µM",[7],96.4%
same,Kd,[9],692 µM
C=C(C)[C@@H]1CC[C@]2(C(=O)OCCO[C@]3(C(=O)OC)C[C@H](O)[C@@H](NC(C)=O)[C@H]([C@H](O)[C@H](O)CO)O3)CC[C@]3(C)[C@H](CC[C@@H]4[C@@]5(C)CC[C@H](O)C(C)(C)[C@@H]5CC[C@]43C)[C@@H]12,inhibition at 100 µM,[6],94.8%
same,inhibition,[10],inactive
same,CC50 at 40 h,[2],> 500 µM
same,inhibition (INH),[11],>75%
same,selectivity ratio,[4],> 12.1
same,"viability at 40 h, 100 µM",[7],98.3%
same,inhibition,[12],inactive
same,Kd,[9],17 µM
same,inhibition,[13],Dose-dependent effect
same,IC50,[5],41.2 µM
CCOC(=O)C1=C[C@@H](OC(CC)CC)[C@H](NC(C)=O)[C@@H](N)C1 [OSELTAMIVIR],inhibition at 50 µM,[14],72.6%
same,CC50 at 40 h,[2],> 500 µM
same,selectivity ratio,[4],> 10.8
same,"viability at 40 h, 50 µM",[15],98.5%
same,IC50,[5],46.5 µM
C=C(C)[C@@H]1CC[C@]2(C(=O)NCc3cn(CCO[C@]4(C(=O)OC)C[C@H](OC(C)=O)[C@@H](NC(C)=O)[C@H]([C@H](OC(C)=O)[C@@H](COC(C)=O)OC(C)=O)O4)nn3)CC[C@]3(C)[C@H](CC[C@@H]4[C@@]5(C)CC[C@H](O)C(C)(C)[C@@H]5CC[C@]43C)[C@@H]12,inhibition at 100 µM,[6],67.6%
same,CC50 at 40 h,[2],> 500 µM
same,selectivity ratio,[4],> 6.3
same,"viability at 40 h, 100 µM",[7],105%
same,IC50,[5],78.3 µM
COC(=O)[C@@]1(OCCn2cc(CNC(=O)[C@]34CCC(C)(C)C[C@@H]3C3=CC[C@@H]5[C@@]6(C)CC[C@H](O)C(C)(C)[C@@H]6CC[C@@]5(C)[C@]3(C)CC4)nn2)C[C@H](O)[C@@H](NC(C)=O)[C@H]([C@H](O)[C@H](O)CO)O1,inhibition at 100 µM,[6],6.7%
same,"viability at 40 h, 100 µM",[7],107%
C=C(C)[C@@H]1CC[C@]2(C(=O)NCc3cn([C@]4(C(=O)OC)C[C@H](O)[C@@H](NC(C)=O)[C@H]([C@H](O)[C@H](O)CO)O4)nn3)CC[C@]3(C)[C@H](CC[C@@H]4[C@@]5(C)CC[C@H](O)C(C)(C)[C@@H]5CC[C@]43C)[C@@H]12,inhibition at 100 µM,[6],-8.1%
same,"viability at 40 h, 100 µM",[7],104%
COC(=O)[C@@]1(OCCOC(=O)[C@]23CCC(C)(C)C[C@@H]2C2=CC[C@@H]4[C@@]5(C)CC[C@H](O)C(C)(C)[C@@H]5CC[C@@]4(C)[C@]2(C)C[C@H]3O)C[C@H](OC(C)=O)[C@@H](NC(C)=O)[C@H]([C@H](OC(C)=O)[C@@H](COC(C)=O)OC(C)=O)O1,inhibition at 100 µM,[6],31.2%
same,"viability at 40 h, 100 µM",[7],84.5%
COC(=O)[C@@]1(OCCI)C[C@H](OC(C)=O)[C@@H](NC(C)=O)[C@H]([C@H](OC(C)=O)[C@@H](COC(C)=O)OC(C)=O)O1,inhibition at 100 µM,[6],6.3%
same,"viability at 40 h, 100 µM",[7],103%
COC(=O)[C@@]1(N=[N+]=[N-])C[C@H](OC(C)=O)[C@@H](NC(C)=O)[C@H]([C@H](OC(C)=O)[C@@H](COC(C)=O)OC(C)=O)O1,inhibition at 100 µM,[6],1%
same,"viability at 40 h, 100 µM",[7],100%
COC(=O)[C@@]1(OCCN=[N+]=[N-])C[C@H](OC(C)=O)[C@@H](NC(C)=O)[C@H]([C@H](OC(C)=O)[C@@H](COC(C)=O)OC(C)=O)O1,inhibition at 100 µM,[6],4.3%
same,"viability at 40 h, 100 µM",[7],100%
C=C(C)[C@@H]1CC[C@]2(C(=O)OCCO[C@]3(C(=O)OC)C[C@H](OC(C)=O)[C@@H](NC(C)=O)[C@H]([C@H](OC(C)=O)[C@@H](COC(C)=O)OC(C)=O)O3)CC[C@]3(C)[C@H](CC[C@@H]4[C@@]5(C)CC[C@H](O)C(C)(C)[C@@H]5CC[C@]43C)[C@@H]12,inhibition at 100 µM,[6],86.6%
same,CC50 at 40 h,[2],178 µM
same,selectivity ratio,[4],2.9
same,"viability at 40 h, 100 µM",[7],80.7%
same,inhibition,[12],inactive
same,IC50,[5],61.3 µM
COC(=O)[C@@]1(n2cc(CNC(=O)[C@]34CCC(C)(C)C[C@@H]3C3=CC[C@@H]5[C@@]6(C)CC[C@H](O)C(C)(C)[C@@H]6CC[C@@]5(C)[C@]3(C)C[C@H]4O)nn2)C[C@H](OC(C)=O)[C@@H](NC(C)=O)[C@H]([C@H](OC(C)=O)[C@@H](COC(C)=O)OC(C)=O)O1,inhibition at 100 µM,[6],-5.2%
same,"viability at 40 h, 100 µM",[7],103%
C=C(C)[C@@H]1CC[C@]2(C(=O)O)CC[C@]3(C)[C@H](CC[C@@H]4[C@@]5(C)CC[C@H](O)C(C)(C)[C@@H]5CC[C@]43C)[C@@H]12 [BETULINIC ACID],"viability at 40 h, 100 µM",[16],20.3%
same,"viability at 40 h, 100 µM",[7],22.8%
same,Kd,[9],30 µM
COC(=O)[C@@]1(OCCOC(=O)[C@]23CCC(C)(C)C[C@@H]2C2=CC[C@@H]4[C@@]5(C)CC[C@H](O)C(C)(C)[C@@H]5CC[C@@]4(C)[C@]2(C)CC3)C[C@H](O)[C@@H](NC(C)=O)[C@H]([C@H](O)[C@H](O)CO)O1,inhibition at 100 µM,[6],16.4%
same,"viability at 40 h, 100 µM",[7],82.4%
COC(=O)[C@@]1(n2cc(CNC(=O)[C@]34CCC(C)(C)C[C@@H]3C3=CC[C@@H]5[C@@]6(C)CC[C@H](O)C(C)(C)[C@@H]6CC[C@@]5(C)[C@]3(C)C[C@H]4O)nn2)C[C@H](O)[C@@H](NC(C)=O)[C@H]([C@H](O)[C@H](O)CO)O1,inhibition at 100 µM,[6],-3.6%
same,"viability at 40 h, 100 µM",[7],104%
COC(=O)[C@@]1(OCCOC(=O)[C@]23CCC(C)(C)C[C@@H]2C2=CC[C@@H]4[C@@]5(C)CC[C@H](O)C(C)(C)[C@@H]5CC[C@@]4(C)[C@]2(C)C[C@H]3O)C[C@H](O)[C@@H](NC(C)=O)[C@H]([C@H](O)[C@H](O)CO)O1,inhibition at 100 µM,[6],-11.8%
same,"viability at 40 h, 100 µM",[7],99.8%
COC(=O)[C@@]1(n2cc(CNC(=O)[C@]34CCC(C)(C)C[C@@H]3C3=CC[C@@H]5[C@@]6(C)CC[C@H](O)C(C)(C)[C@@H]6CC[C@@]5(C)[C@]3(C)CC4)nn2)C[C@H](OC(C)=O)[C@@H](NC(C)=O)[C@H]([C@H](OC(C)=O)[C@@H](COC(C)=O)OC(C)=O)O1,inhibition at 100 µM,[6],1.3%
same,"viability at 40 h, 100 µM",[7],104%
